# Assays:
# Assay in all cases: relative viability (nuclei count vs DMSO), 5 days (fraction); higher = more cells survive
# YM155 + Alpelisib = compound: COCC[n+]1c2c(n(Cc3cnccn3)c1C)C(=O)c1ccccc1C2=O [YM155] + Cc1nc(NC(=O)N2CCC[C@H]2C(N)=O)sc1-c1ccnc(C(C)(C)C(F)(F)F)c1 [Alpelisib] (partner 2 µM)
# How it was run: (§1)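 Each reported value is a median over duplicate plates. It expresses relative viability: treated-well nuclei count divided by vehicle-well nuclei count. Lung cancer cell lines in 1536-well plates were dosed by pin tool a day after seeding, alone with one drug or with a fixed anchor-drug dose plus five library-drug doses (not always all listed) in √10 steps, and nuclei were counted after 5 days.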
# YM155 + Tozasertib = compound: COCC[n+]1c2c(n(Cc3cnccn3)c1C)C(=O)c1ccccc1C2=O [YM155] + Cc1cc(Nc2cc(N3CCN(C)CC3)nc(Sc3ccc(NC(=O)C4CC4)cc3)n2)n[nH]1 [Tozasertib] (partner 0.1 µM)
# How it was run: as §1
# YM155 + Palbociclib = compound: COCC[n+]1c2c(n(Cc3cnccn3)c1C)C(=O)c1ccccc1C2=O [YM155] + CC(=O)c1c(C)c2cnc(Nc3ccc(N4CCNCC4)cn3)nc2n(C2CCCC2)c1=O [Palbociclib] (partner 0.5 µM)
# How it was run: as §1
# YM155 + Phenformin = compound: COCC[n+]1c2c(n(Cc3cnccn3)c1C)C(=O)c1ccccc1C2=O [YM155] + N=C(N)NC(=N)NCCc1ccccc1 [Phenformin] (partner 250 µM)
# How it was run: as §1
Cell Line,relative viability (YM155 + Alpelisib; first compound 0.002 µM),relative viability (YM155 + Alpelisib; first compound 0.006325 µM),relative viability (YM155 + Alpelisib; first compound 0.02 µM),relative viability (YM155 + Alpelisib; first compound 0.06325 µM),relative viability (YM155 + Tozasertib; first compound 0.002 µM),relative viability (YM155 + Tozasertib; first compound 0.006325 µM),relative viability (YM155 + Tozasertib; first compound 0.02 µM),relative viability (YM155 + Tozasertib; first compound 0.06325 µM),relative viability (YM155 + Palbociclib; first compound 0.002 µM),relative viability (YM155 + Palbociclib; first compound 0.006325 µM),relative viability (YM155 + Palbociclib; first compound 0.02 µM),relative viability (YM155 + Palbociclib; first compound 0.06325 µM),relative viability (YM155 + Phenformin; first compound 0.002 µM),relative viability (YM155 + Phenformin; first compound 0.006325 µM),relative viability (YM155 + Phenformin; first compound 0.02 µM),relative viability (YM155 + Phenformin; first compound 0.06325 µM)
NCI-H661,0.637,0.657,0.862,0.59,0.376,0.358,0.369,0.285,0.405,0.401,0.418,0.327,0.257,0.245,0.264,0.288
NCI-H727,0.499,0.495,0.586,0.575,0.38,0.721,0.615,0.7,0.639,0.694,0.615,0.705,0.532,0.522,0.634,0.689
NCI-H838,0.971,0.991,1.05,0.316,0.252,0.275,0.252,0.19,0.191,0.237,0.226,0.198,0.54,0.625,0.583,0.717
NCI-H1355,0.846,0.869,0.932,0.963,0.617,0.518,0.654,0.597,0.4,0.39,0.4,0.394,0.442,0.46,0.493,0.499
NCI-H1395,1.13,1.24,1.14,1.12,0.788,0.779,0.814,0.777,0.565,0.613,0.598,0.627,0.419,0.465,0.453,0.481
NCI-H1437,0.958,1.03,0.993,0.835,0.421,0.416,0.455,0.276,0.245,0.329,0.309,0.298,0.285,0.308,0.257,0.324
NCI-H1651,0.979,0.904,0.925,0.694,0.641,0.686,0.685,0.33,0.548,0.519,0.494,0.53,0.316,0.366,0.326,0.377
NCI-H1666,0.822,–,1.11,0.844,0.629,0.646,0.686,0.664,0.616,0.701,0.651,0.611,0.567,0.599,0.578,0.579
NCI-H1734,0.63,0.658,0.697,0.776,0.268,0.234,0.26,0.281,0.362,0.313,0.374,0.345,0.43,0.451,0.404,0.509
NCI-H1755,0.892,0.926,0.973,1.02,0.51,0.584,0.603,0.54,0.439,0.478,0.456,0.453,0.626,0.575,0.602,0.657
NCI-H1793,–,0.601,0.659,0.565,0.385,0.38,0.369,0.32,0.292,0.324,0.323,0.304,0.348,0.371,0.365,0.353
NCI-H1915,1.06,1.01,1.08,0.975,0.393,0.458,0.444,0.36,0.494,0.533,0.539,0.552,0.351,0.357,0.368,0.355
NCI-H1944,0.83,0.756,0.803,0.905,0.253,0.279,0.259,0.232,0.337,0.296,0.328,0.325,0.208,0.17,0.202,0.205
NCI-H1975,0.627,0.665,0.581,0.549,0.715,0.704,0.859,0.163,0.463,0.531,0.643,0.259,0.384,0.415,0.406,0.395
NCI-H1993,0.691,0.726,0.673,0.657,0.582,0.646,0.498,0.452,0.557,0.657,0.554,0.43,0.463,0.547,0.488,0.512
NCI-H2009,1.2,1.14,1.11,0.504,0.739,0.791,0.776,0.458,0.215,0.189,0.318,0.166,0.464,0.489,0.46,0.326

Cell Line,relative viability (YM155 + Alpelisib; first compound 0.002 µM),relative viability (YM155 + Alpelisib; first compound 0.006325 µM),relative viability (YM155 + Alpelisib; first compound 0.02 µM),relative viability (YM155 + Alpelisib; first compound 0.06325 µM),relative viability (YM155 + Tozasertib; first compound 0.002 µM),relative viability (YM155 + Tozasertib; first compound 0.006325 µM),relative viability (YM155 + Tozasertib; first compound 0.02 µM),relative viability (YM155 + Tozasertib; first compound 0.06325 µM),relative viability (YM155 + Palbociclib; first compound 0.002 µM),relative viability (YM155 + Palbociclib; first compound 0.006325 µM),relative viability (YM155 + Palbociclib; first compound 0.02 µM),relative viability (YM155 + Palbociclib; first compound 0.06325 µM),relative viability (YM155 + Phenformin; first compound 0.002 µM),relative viability (YM155 + Phenformin; first compound 0.006325 µM),relative viability (YM155 + Phenformin; first compound 0.02 µM),relative viability (YM155 + Phenformin; first compound 0.06325 µM)
NCI-H2023,0.589,0.671,0.594,0.156,0.416,0.433,0.314,0.0926,0.384,0.423,0.21,0.105,0.361,0.403,0.411,0.422
NCI-H2085,0.955,0.833,0.731,0.559,0.794,0.804,0.867,0.77,0.436,0.441,0.469,0.375,0.782,0.835,0.847,0.725
NCI-H2087,0.903,1.06,1.03,0.822,0.253,0.23,0.253,0.219,0.207,0.247,0.256,0.208,0.476,0.448,0.498,0.495
NCI-H2126,0.754,0.76,0.77,0.802,0.807,0.88,0.948,0.934,0.354,0.369,0.369,0.369,0.508,0.597,0.555,0.522
NCI-H2170,0.866,0.855,0.889,0.877,0.831,0.792,0.784,0.722,0.418,0.473,0.389,0.376,0.416,0.4,0.413,0.408
NCI-H2228,0.764,0.782,0.645,0.657,0.265,0.26,0.213,0.316,0.573,0.69,0.752,0.714,0.304,0.272,0.375,0.338
NCI-H2347,1.01,0.896,0.987,0.67,0.531,0.59,0.786,0.567,0.422,0.399,0.389,0.37,0.489,0.395,0.582,0.448
NCI-H2405,0.826,0.593,0.826,0.345,0.678,0.704,0.637,0.513,0.515,0.508,0.424,0.269,0.383,0.39,0.423,0.404
NCI-H3122,0.67,0.665,0.751,0.82,0.43,0.423,0.396,0.273,0.184,0.178,0.218,0.171,0.362,0.36,0.384,0.364
PC-3 [JPC-3],1.02,1.02,1.07,0.972,0.879,0.984,0.869,0.941,0.526,0.565,0.571,0.52,0.454,0.521,0.475,0.473
PC-14,1,1.02,0.953,0.811,0.585,0.632,0.629,0.564,0.477,0.447,0.476,0.278,0.485,0.708,0.668,0.554
RERF-LC-KJ,0.806,0.705,0.771,0.842,0.375,0.482,0.563,0.468,1.09,1.1,1.02,0.985,0.386,0.432,0.462,0.463
SK-LU-1,1.03,1.09,1.07,1.01,0.293,0.357,0.418,0.341,0.405,0.495,0.404,0.412,0.487,0.499,0.566,0.588
SK-MES-1,0.823,0.905,1.05,0.715,0.853,0.866,0.483,0.267,0.312,0.357,0.225,0.191,0.584,0.695,0.575,0.256
SW 1573,0.73,0.657,0.875,0.723,0.132,0.155,0.0846,0.0818,0.415,0.314,0.126,0.0609,0.365,0.305,0.394,0.338
UMC-11,1.03,1.06,1,1.08,0.209,0.199,0.213,0.212,0.327,0.356,0.336,0.33,0.3,0.355,0.363,0.328

# From the supplement of paper PMC10307832
